Measured values as given in PubChem BioAssay AID1963837 (Molecular Pharmacology Branch, DTP, NCI, 2024).

Tested on: 843126-344-R-J1-PDC complex spheroid viability
Assay: Anticancer human tumor 843126-344-R-J1-PDC patient-derived melanoma cell line growth inhibition [POLQ]
Conditions: for IC50: curve of first compound; for viability, T/C: stronger effect = lower value
Procedure: Multicellular complex tumor spheroid response to Polymerase (POL) inhibitors (novobiocin, ART-558, RP6685) in combination with a variety of drugs and investigational agents in selected tumor cell lines
The POL inhibitors (novobiocin, ART-558, and RP6685) were evaluated both individually and in combination with standard of care and investigational anticancer small molecules within a complex spheroid model of solid tumors. . Complex spheroids include a stromal component modeled by human endothelial cells (HUVEC) and fibroblasts modeled by human mesenchymal stem cells (MSCs). The concentration ranges selected for each drug and investigational agent were based upon clinically achievable concentrations if the clinical Cmax of the agent was known.
Compounds. The drugs and investigational agents: novobiocin (NSC847541), ART-558 (NSC835418), RP-6685 (NSC848927), peposertib (NSC802822), ceralasertib (NSC780249), elimusertib (NSC800525), camonsertib (NSC841442), AZD-1390 (NSC803789), olaparib (NSC753686), talazoparib (NSC767125), rucaparib (NSC756644), sotorasib (NSC818433), MRTX-1133 (NSC836407), SN-38 (NSC673596), topotecan (NSC609699), epotoside (NSC141540), doxorubicin (NSC123127), gemcitabine (NSC613327), 5-fluorouracil (NSC19893), paclitaxel (NSC125973), vemurafenib (NSC761431), MSA-2 (NSC828583), SN-011 (NSC837082), adavosertib (NSC754352), prexasertib (NSC758257), carboplatin (NSC241240) and oxaliplatin (NSC266046), were obtained from the National Cancer Institute (NCI) Developmental Therapeutics Program Chemical Repository (21). The FDA-approved anticancer drug set is available from the Developmental Therapeutics Program at https://dtp.cancer.gov/organization/dscb/obtaining/. […] The stock solutions were prepared in dimethyl sulfoxide (DMSO, Sigma-Aldrich, St. Louis, MO, cat. D2650), except for the platinum compounds which were prepared in saline (Quality Biological, Gaithersburg, MD, cat. 114-055-101), at 800-fold the tested concentration and stored at -70 degrees C prior to their use. All drugs and investigational agents were tested over a range starting from a high concentration at or near the clinical Cmax and decreasing in half-log increments. If the clinical Cmax for an agent had not been determined, the highest concentration tested was 10 microM, except for SN-38, which was tested at a high concentration of 1 microM.
Cell Culture. All cells were maintained in an incubator at 37 degrees C and 5% CO2 with 95% humidity. The PDC lines were cultured according to standard operating procedures established by the NCI PDMR (https://pdmr.cancer.gov). Table 3 of the manuscript, lists the cell lines along with the number of the three cell types plated to form the mct-spheroids and media for tumor cell growth. After thawing, all PDC lines, except 997537-175-T-J1-PDC and 415267-285-R-J2-PDC, were cultured in Matrigel-coated flasks prepared with a working solution of 1X Ham's F-12 nutrient mix, without supplementation (Thermo Fisher Scientific, cat. 11765054), 100 U/mL penicillin-streptomycin (Thermo Fisher Scientific, cat. 15140122), and 2.5% Matrigel (Corning Inc., Corning, NY, cat. 354248) for the first three passages. The two PDC lines 997537-175-T-J1-PDC and 415267-285-R-J2-PDC were cultured on uncoated flasks. The 857933-349-R-J2-PDC line was cultured in 6C/Colon 1B media containing advanced DMEM/F-12 (Thermo Fisher Scientific, cat. 12634028), 10 mM HEPES (Thermo Fisher Scientific, cat. 15630080), 1X GlutaMAX supplement (Thermo Fisher Scientific, cat. 35050061), 0.1 mg/mL primocin (InvivoGen, San Diego, CA, cat. ant-pm-2), 10% defined fetal bovine serum, heat inactivated (HyClone Laboratories Inc., Logan, UT, cat. SH30070.03HI), 50% L-WRN conditioned media (ATCC, cat. CRL-3276), 1.25 mM N-Acetyl-L-cysteine (Sigma-Aldrich, cat. A9165), 10 mM nicotinamide (Sigma-Aldrich, cat. N0636), 1X B-27 supplement (Thermo Fisher Scientific, cat. 17504044), 1X N-2 supplement (Thermo Fisher Scientific, cat. […]

[1] = second compound 0.0316 µM, first compound 0.0316 µM
[2] = second compound 0.0316 µM, first compound 0.1 µM
[3] = second compound 0.0316 µM, first compound 0.316 µM
[4] = second compound 0.0316 µM, first compound 1 µM
[5] = second compound 0.0316 µM, first compound 3.16 µM
[6] = second compound 0.0316 µM, first compound 10 µM
[7] = second compound 0.1 µM, first compound 0.0316 µM
[8] = second compound 0.1 µM, first compound 0.1 µM
[9] = second compound 0.1 µM, first compound 0.316 µM
[10] = second compound 0.1 µM, first compound 1 µM
[11] = second compound 0.1 µM, first compound 3.16 µM
[12] = second compound 0.1 µM, first compound 10 µM
[13] = second compound 0.316 µM, first compound 0.0316 µM
[14] = second compound 0.316 µM, first compound 0.1 µM
[15] = second compound 0.316 µM, first compound 0.316 µM
[16] = second compound 0.316 µM, first compound 1 µM
[17] = second compound 0.316 µM, first compound 3.16 µM
[18] = second compound 0.316 µM, first compound 10 µM
[19] = second compound 1 µM, first compound 0.0316 µM
[20] = second compound 1 µM, first compound 0.1 µM
[21] = second compound 1 µM, first compound 0.316 µM
[22] = second compound 1 µM, first compound 1 µM
[23] = second compound 1 µM, first compound 3.16 µM
[24] = second compound 1 µM, first compound 10 µM
[25] = second compound 3.16 µM, first compound 0.0316 µM
[26] = second compound 3.16 µM, first compound 0.1 µM
[27] = second compound 3.16 µM, first compound 0.316 µM
[28] = second compound 3.16 µM, first compound 1 µM
[29] = second compound 3.16 µM, first compound 3.16 µM
[30] = second compound 3.16 µM, first compound 10 µM
[31] = second compound 10 µM, first compound 0.0316 µM
[32] = second compound 10 µM, first compound 0.1 µM
[33] = second compound 10 µM, first compound 0.316 µM
[34] = second compound 10 µM, first compound 1 µM
[35] = second compound 10 µM, first compound 3.16 µM
[36] = second compound 10 µM, first compound 10 µM
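Wherever viability, T/C is given: spheroids exposed to drugs for seven days before readout.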

COc1cccc2c1C(=O)c1c(O)c3c(c(O)c1C2=O)CC(O)(C(=O)CO)CC3OC1CC(N)C(O)C(C)O1 (centres undefined) + COC1C(OC(N)=O)C(O)C(Oc2ccc3c(O)c(NC(=O)c4ccc(O)c(CC=C(C)C)c4)c(=O)oc3c2C)OC1(C)C
IC50 (second compound 0.0316 µM): 332 nM | IC50 (second compound 0.1 µM): 320 nM | IC50 (second compound 0.316 µM): 295 nM | IC50 (second compound 1 µM): 328 nM | IC50 (second compound 3.16 µM): 404 nM | IC50 (second compound 10 µM): 303 nM | viability, T/C [1]: 80% | viability, T/C [2]: 81.3% | viability, T/C [3]: 50.5% | viability, T/C [4]: 14.6% | viability, T/C [5]: 4.71% | viability, T/C [6]: 3.86% | viability, T/C [7]: 84% | viability, T/C [8]: 85% | viability, T/C [9]: 49.2% | viability, T/C [10]: 13.5% | viability, T/C [11]: 3.97% | viability, T/C [12]: 3.88% | viability, T/C [13]: 103% | viability, T/C [14]: 71.8% | viability, T/C [15]: 58% | viability, T/C [16]: 14.1% | viability, T/C [17]: 4.21% | viability, T/C [18]: 4.82% | viability, T/C [19]: 98.3% | viability, T/C [20]: 77.2% | viability, T/C [21]: 56.2% | viability, T/C [22]: 13% | viability, T/C [23]: 4.55% | viability, T/C [24]: 3.9% | viability, T/C [25]: 87.6% | viability, T/C [26]: 77% | viability, T/C [27]: 60.2% | viability, T/C [28]: 16% | viability, T/C [29]: 5.73% | viability, T/C [30]: 4.31% | viability, T/C [31]: 88.6% | viability, T/C [32]: 77.6% | viability, T/C [33]: 49.9% | viability, T/C [34]: 15% | viability, T/C [35]: 4.64% | viability, T/C [36]: 3.44%

O=c1[nH]cc(F)c(=O)[nH]1 + COC1C(OC(N)=O)C(O)C(Oc2ccc3c(O)c(NC(=O)c4ccc(O)c(CC=C(C)C)c4)c(=O)oc3c2C)OC1(C)C
IC50 (second compound 0.0316 µM): > 10000 nM | IC50 (second compound 0.1 µM): > 10000 nM | IC50 (second compound 0.316 µM): > 10000 nM | IC50 (second compound 1 µM): > 10000 nM | IC50 (second compound 3.16 µM): > 10000 nM | IC50 (second compound 10 µM): > 10000 nM | viability, T/C [1]: 97.9% | viability, T/C [2]: 76.6% | viability, T/C [3]: 91.9% | viability, T/C [4]: 102% | viability, T/C [5]: 99.3% | viability, T/C [6]: 87.7% | viability, T/C [7]: 99.2% | viability, T/C [8]: 99% | viability, T/C [9]: 102% | viability, T/C [10]: 84.2% | viability, T/C [11]: 82.7% | viability, T/C [12]: 73.3% | viability, T/C [13]: 92.4% | viability, T/C [14]: 116% | viability, T/C [15]: 89.5% | viability, T/C [16]: 81.7% | viability, T/C [17]: 75.3% | viability, T/C [18]: 70.4% | viability, T/C [19]: 76.6% | viability, T/C [20]: 85.4% | viability, T/C [21]: 80.3% | viability, T/C [22]: 90.2% | viability, T/C [23]: 92.8% | viability, T/C [24]: 64.3% | viability, T/C [25]: 94.2% | viability, T/C [26]: 94.3% | viability, T/C [27]: 89.7% | viability, T/C [28]: 103% | viability, T/C [29]: 75.2% | viability, T/C [30]: 70.4% | viability, T/C [31]: 78.8% | viability, T/C [32]: 88.1% | viability, T/C [33]: 93% | viability, T/C [34]: 80.6% | viability, T/C [35]: 94.3% | viability, T/C [36]: 71.5%
